The EC50 is the concentration needed to bring the measured effect to its halfway point.

Drawing on patent US9518000B2, “Bicyclo [2.2.1] acid GPR120 modulators” (BRISTOL-MYERS SQUIBB COMPANY, priority 2013, dated 2016), this text covers EC50 for 30 compounds.

This test concerns the target human GPR120 (Homo sapiens (Human), UniProt Q5NUL3). Kind of test: GPR120 pERK AlphaScreen SureFire Assay (human GPR120 pERK assay). The test is classed as cell-based. To be noted: CHOA12 or CHO-K1 cells stably transfected with the short form of human GPR120 receptor; phosphorylated ERK; read-out: EC50 values measured in the human GPR120 pERK assay. The source says:
GPR120 activity was monitored by measuring phosphorylation of ERK (pERK), since G protein receptors are known to activate the ERK signaling cascade either directly and/or through recruitment of arrestin that serves as a scaffold for downstream signaling events.
GPR120 pERK AlphaScreen SureFire Assay
The human and mouse GPR120-mediated intracellular phosphorylated ERK assays were established using CHOA12 cells stably transfected with the short form of human or mouse GPR120 receptor. Cells were cultured in growth medium consisting of F-12 media (Invitrogen Cat. #11765) with 5% Charcoal/Dextran FBS (Invitrogen Cat. #12676-029), 500 μg/mL GENETICIN® (Life Technologies Cat. #10131-027) and 250 μg/mL Zeocin (Invitrogen Cat. #R250-01). Cells were cryo preserved at a concentration of 2×10^7 cells/mL, in 90% Charcoal/Dextran FBS and 10% DMSO, and frozen in liquid nitrogen at a low passage number.
For the pERK assay, 2×10^7 cells/mL cryopreserved human and mouse cells were thawed rapidly in a 37° C. water bath and added to a T-225 flask containing 50 mL growth medium. The flasks were placed in a tissue culture incubator overnight (37° C., 5% CO2). The next day, cells were harvested with trypsin (Gibco Cat. #25300-054), resuspended in serum-containing growth medium and counted using a Cellometer and volume adjusted to a concentration of 0.6×10^6 cells/mL. Cells were plated into 384-well clear bottom tissue culture plates (BD Cat. #353962) at 50 μL/well, for a density of 30,000 cells/well using a MULTIDROP® and incubated for 16-18 hours (overnight) at 37° C. with 5% CO2. The next day, cells were serum starved in 30 μL of F-12 media without any serum or antibiotics for 2 hours at 37° C.
Test compounds were 3-fold, 11-point serially diluted in DMSO in a REMP assay plate (Matrix Cat. #4307) by Tecan and 5 μL was transferred into an ECHO source plate (LabCyte Cat. #LC-0200). Cells were then stimulated with 50 nL of compound dilutions using ECHO liquid handler for 7 minutes at 37° C. Compounds ranged from final assay concentrations of 33.33 μM to 0.56 nM.
The media was then dumped and cells lysed with 20 μL of 1× Lysis buffer from the AlphaScreen SureFire Phospho-ERK 1/2 Kit (Perkin Elmer Cat. #6760617M). The lysis buffer was diluted 5-fold with water before use. The plate was agitated on a shaker for 10 minutes after which 2 μL was transferred into a 384-well white proxiplate (Perkin Elmer Cat. #6008289). The SureFire assay reagent mix was prepared by mixing 60 parts Reaction Buffer, 10 parts Activation Buffer, 1 part Donor Beads, 1 part Acceptor Beads (Perkin Elmer Cat. #TGRES10K). 3.5 μL/well of this reagent mix was manually added to the proxiplate with a multichannel pipettor. Plates were spun down at 1000 rpm for 2 minutes, followed by light-protected incubation at room temperature for 2 hours. The plates were read on the Alpha-technology compatible Envision multilabel plate reader using AlphaScreen protocol according to manufacturer's specifications. The agonist effect of compounds was expressed as 100×(average sample-average blank)/(average total−average blank) where sample is the luminescence activity in the presence of test compound, blank is equal to the luminescence activity in the presence of DMSO control and the total is signal induced by 50 μM linolenic acid as reference compound. Activation data for the test compound over a range of concentrations was plotted as percentage activation of the test compound (100%=maximum response). After correcting for background, EC50 values were determined. The EC50 is defined as the concentration of test compound which produces 50% of the maximal response and was quantified using the 4 parameter logistic equation to fit the data.
The human and mouse GPR120-mediated intracellular phosphorylated ERK assays were also established using CHO-K1 cells stably transfected with the short form of human or mouse GPR120 receptor. […]

human GPR120, sequence (Q5NUL3 whole entry): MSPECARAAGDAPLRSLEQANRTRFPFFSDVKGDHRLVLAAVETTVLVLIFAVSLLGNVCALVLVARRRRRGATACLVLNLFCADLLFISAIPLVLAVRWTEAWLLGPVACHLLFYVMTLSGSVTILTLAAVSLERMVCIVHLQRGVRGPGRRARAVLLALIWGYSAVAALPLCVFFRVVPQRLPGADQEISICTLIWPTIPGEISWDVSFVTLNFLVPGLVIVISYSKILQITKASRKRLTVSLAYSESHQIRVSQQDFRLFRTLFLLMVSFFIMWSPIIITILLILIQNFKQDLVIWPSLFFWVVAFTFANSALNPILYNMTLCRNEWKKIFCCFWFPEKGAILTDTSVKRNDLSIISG

With `O=C(O)CCCC12CCC(OCc3cccc(Oc4ccccc4)c3)(CC1)C2` [Example 15, 4-(4-(3-phenoxy-benzyloxy)bicyclo[2.2.1]heptan-1-yl) butanoic acid], the EC50 was 0.36 µM.
Turning to `CNC(=O)CCCC12CCC(OCc3cccc(Oc4ccccc4)c3)(CC1)C2` [Example 84, N-Methyl-4-(4-((3-phenoxybenzyl)oxy)bicyclo[2.2.1]heptan-1-yl)butanamide], the EC50 stood at 3.03 µM.
For `O=C(O)CCOC12CCC(OCc3cc(F)cc(Oc4ccccc4)c3)(CC1)C2` [Example 79, 3-(4-(3-Fluoro-5-phenoxybenzyloxy)bicyclo[2.2.1]heptan-1-yloxy)propanoic acid] the value was 0.27 µM; for `COc1ccc(OC(F)(F)F)cc1COC12CCC(CCCC(=O)O)(CC1)C2` [Example 29, 4-(4-(2-methoxy-5-(trifluorometh-oxy)benzyloxy)bicyclo[2.2.1]heptan-1-yl) butanoic acid], 5.07 µM.
In the case of `CC(C)Oc1ccccc1COC12CCC(CCCC(=O)O)(CC1)C2` [Example 36, 4-(4-(2-isopropoxy-benzyloxy)bicyclo [2.2.1]heptan-1-yl)butanoic acid], the half-maximal effective concentration (EC50) was found to be 1.55 µM.
`O=C(O)CCCC12CCC(OCc3cc(Cl)cc(OC(F)(F)F)c3)(CC1)C2` [Example 18, 4-(4-(3-chloro-5-(trifluorometh-oxy)benzyloxy)bicyclo[2.2.1]heptan-1-yl) butanoic acid]: the concentration for a half-maximal effect (EC50) turned out to be 0.25 µM.
Take `OCC(O)CCC12CCC(OCc3cc(F)cc(Oc4ccccc4)c3)(CC1)C2` (single isomer, unassigned) [Example 97, 4-(4-((3-Fluoro-5-phenoxybenzyl)oxy)bicyclo[2.2.1]heptan-1-yl)butane-1,2-diol]: the EC50 was determined as 2.48 µM.
On to `O=C(O)[C@@H]1C[C@H]1CC12CCC(OCc3cc(F)cc(Oc4ccccc4)c3)(CC1)C2` (single isomer, unassigned) [Example 93], for which the half-maximal effective concentration (EC50) stood at 0.88 µM.
`O=C(O)CCCC12CCC(OCc3cccc(-c4ccccc4)c3)(CC1)C2` [Example 57, 4-(4-(biphenyl-3-ylmethoxy)bicyclo[2.2.1]heptan-1-yl) butanoic acid]: the concentration for a half-maximal effect (EC50) is 0.77 µM.
In the case of `O=C(CCCC12CCC(OCc3cccc(Oc4ccccc4)c3)(CC1)C2)N1CC(O)C1` [Example 85, 1-(3-Hydroxyazetidin-1-yl)-4-(4-((3-phenoxybenzyl)oxy)bicyclo[2.2.1]heptan-1-yl)butan-1-one], the concentration giving a half-maximal response (EC50) turned out to be 2.4 µM.
On to `COc1cc(F)cc(COC23CCC(CCCC(=O)O)(CC2)C3)c1` [Example 27, 4-(4-(3-fluoro-5-methoxybenzyl-oxy)bicyclo [2.2.1]heptan-1-yl)butanoic acid], for which the concentration for a half-maximal effect (EC50) is 1.56 µM.
For `O=C(O)CCCC12CCC(OCc3cccc(C(F)(F)F)c3)(CC1)C2` [Example 65, 4-(4-(3-(trifluoro-methyl)benzyloxy)bicyclo[2.2.1]heptan-1-yl) butanoic acid] the value was 1.27 µM.
Regarding `O=C(O)COCC12CCC(OCc3cccc(Oc4ccccc4)c3)(CC1)C2` [Example 74, 2-((4-(3-phenoxybenzyloxy)bicyclo[2.2.1]heptan-1-yl)methoxy)acetic acid], the concentration for a half-maximal effect (EC50) came out at 1.43 µM.
Consider `O=C(O)CCCC12CCC(OCc3cc([N+](=O)[O-])ccc3Cl)(CC1)C2` [Example 51, 4-(4-(2-chloro-5-nitrobenzyloxy)bicyclo[2.2.1]heptan-1-yl) butanoic acid], for which the concentration for a half-maximal effect (EC50) amounted to 2.39 µM.
`CC1(C)Cc2cc(Cl)cc(COC34CCC(CCC(=O)O)(CC3)C4)c2O1` [Example 71, 3-(4-((5-Chloro-2,2-dimethyl-2,3-dihydrobenzofuran-7-yl)methoxy)bicyclo[2.2.1]heptan-1-yl)propanoic acid]: the half-maximal effective concentration (EC50) was 6.64 µM.
The result for `O=C(O)C1CC1CC12CCC(OCc3cccc(Oc4ccccc4)c3)(CC1)C2` (stereo not drawn) [Example 95, 2-((4-((3-Phenoxybenzyl)oxy)bicyclo[2.2.1]heptan-1-yl)methyl)cyclopropanecarboxylic acid] reads 0.51 µM; that for `O=C(O)CCCC12CCC(OCc3cccc(Oc4ccc(F)cc4)c3)(CC1)C2` [Example 17, 4-(4-(3-(4-fluorophenoxy)benzyloxy)bicyclo[2.2.1]-1-yl)butanoic acid], 0.25 µM; that for `O=C(O)CCCC12CCC(OCc3cccc(F)c3F)(CC1)C2` [Example 53, 4-(4-(2,3-difluorobenzyloxy)bicyclo[2.2.1]heptan-1-yl) butanoic acid], 6.12 µM.
As to `COC(=O)CCCC12CCC(OCc3cc(F)ccc3-c3ccc(C)cc3)(CC1)C2` [Example 66, methyl 4-(4-((4-fluoro-4′-methyl-[1,1′-biphenyl]-2-yl)methoxy)bicyclo [2.2.1]heptan-1-yl)butanoic], the concentration giving a half-maximal response (EC50) came to 0.37 µM.
With `O=C(O)CCC12CCC(OCCc3ccccc3Oc3ccccc3)(CC1)C2` [Example 86, 3-(4-(2-Phenoxyphenethoxy)bicyclo[2.2.1]heptan-1-yl)propanoic acid], the EC50 stood at 6.99 µM.
Consider `O=C(O)/C=C/CC12CCC(OCc3cccc(Oc4ccccc4)c3)(CC1)C2` [Example 94, (E)-4-(4-((3-Phenoxybenzyl)oxy)bicyclo[2.2.1]heptan-1-yl)but-2-enoic acid], for which the concentration giving a half-maximal response (EC50) came out at 0.63 µM.
Take `O=C(O)CCCC12CCC(OCc3ccccc3SC(F)(F)F)(CC1)C2` [Example 49, 4-(4-(2-(trifluoro-methylthio)benzyloxy)bicyclo [2.2.1]heptan-1-yl)butanoic acid]: the EC50 was 0.66 µM.
Regarding `O=C(O)CCCC12CCC(OCc3cc(F)ccc3OC(F)(F)F)(CC1)C2` [Example 44, 4-(4-(5-fluoro-2-(trifluorometh-oxy)benzyloxy)bicyclo[2.2.1]heptan-1-yl) butanoic acid], the EC50 came out at 0.93 µM.
For `O=C(O)CCCC12CCC(OCc3ccccc3Cl)(CC1)C2` [Example 10, 4-(4-(2-chloro-benzyloxy)bicyclo[2.2.1]heptan-1-yl) butanoic acid] the value was 2.64 µM.
For `O=C(O)CCCC12CCC(OCc3cccc(Cl)c3)(CC1)C2` [Example 23, 4-(4-(3-chloro-benzyloxy)bicyclo[2.2.1]heptan-1-yl) butanoic aicd] the value was 1.15 µM; for `O=C(O)CCCC12CCC(OCc3cccc(Oc4ccccc4F)c3)(CC1)C2` [Example 16, 4-(4-(3-(2-fluorophenoxy)benzyloxy)bicyclo[2.2.1]heptan-1-yl) butanoic acid], 0.64 µM; for `O=C(O)COCC12CCC(OCc3cc(F)cc(Oc4ccc(F)cc4)c3)(CC1)C2` [Example 75, 2-((4-(3-fluoro-5-(4-fluorophenoxy)benzyloxy)bicyclo[2.2.1]heptan-1-yl)methoxy)acetic acid], 1.85 µM.
As for `O=C(O)CCCC12CCC(OCc3c(Cl)ccc(Cl)c3Cl)(CC1)C2` [Example 59, 4-(4-(2,3,6-trichlorobenzyl-oxy)bicyclo [2.2.1]heptan-1-yl)butanoic acid], the half-maximal effective concentration (EC50) worked out at 0.61 µM.
Turning to `O=C(O)C1CC1CC12CCC(OCc3cc(F)cc(Oc4ccccc4)c3)(CC1)C2` (racemic) [Example 91, 2-((4-((3-Fluoro-5-phenoxybenzyl)oxy)bicyclo[2.2.1]heptan-1-yl)methyl)cyclopropanecarboxylic acid], the EC50 amounted to 0.28 µM.
Regarding `Cc1ccc(Br)cc1COC12CCC(CCCC(=O)O)(CC1)C2` [Example 62, 4-(4-(5-bromo-2-methylbenzyl-oxy)bicyclo [2.2.1]heptan-1-yl)butanoic acid], the EC50 was 0.81 µM.
